From patent US20220175768A1, “FGFR TYROSINE KINASE INHIBITORS FOR THE TREATMENT OF UROTHELIAL CARCINOMA” (Janssen Pharmaceutica NV, priority 2019, published 2022)

Conditions: 6 mg continuous, regimen 2 (n = 78)
Protocol: Study treatment was administered on 28-day cycles. Prior to interim analysis 1, there were 2 treatment regimens. Patients were randomized 1:1 to 28-day cycles to the following 2 regimens until a regimen was selected for further study: Regimen 1 (10 mg once daily intermittent (7 days on/7 days); Regimen 2 (6 mg once daily continuous). Randomization was stratified according to performance status (0 to 1 vs. 2), hemoglobin value (<10 vs. ≥10 g per dl), FGFR alteration type (mutation vs. fusion), prior treatment status (chemotherapy-resistant vs. chemotherapy naïve), and disease distribution (presence or absence of visceral [liver, lung, bone] metastases). Starting dose selection was based on phase 1 efficacy and tolerability.
Thus, after interim analysis, this became a single-arm study. […] Treatment continued until disease progression or unacceptable adverse event(s) per investigator.
All objective responses required confirmation by an additional investigator assessment within 4 to 6 weeks of first assessment. Disease evaluations for regimen 3 were also performed by an independent radiographic review committee. […] Safety was evaluated based on clinical laboratory tests, physical exams, electrocardiograms, and ophthalmology examinations. Adverse events and abnormalities were assessed by investigator and graded per NCI CTCAE v.4.0
Prophylactic measures were taken to minimize risk of common adverse events related to FGFR inhibition. To reduce risk of hyperphosphatemia, a low-phosphate diet was recommended for all patients (600 to 800 mg of dietary phosphate intake per day). To reduce the risk of skin effects, the application of alcohol-free emollient moisturizing cream and avoidance of unnecessary exposure to sunlight, soap, perfumed products, and hot baths was recommended. Patients were asked to keep their fingers and toes clean and nails trimmed to reduce risk of nail effects.
Additional ophthalmology examinations were performed if clinically indicated.

COc1cc(OC)cc(N(CCNC(C)C)c2ccc3ncc(-c4cnn(C)c4)nc3c2)c1 [erdafitinib, N-(3,5-dimethoxy-phenyl)-N′-(1-methylethyl)-N-[3-(1-methyl-1H-pyrazol-4-yl)quinoxalin-6-yl]ethane-1,2-diamine]
52 (67) no. (%): Patients with Hyperphosphatemia, Any grade
16 (21) no. (%): Patients with Nausea, Any grade
6 (7) no. (%): Patients with Dyspnea, Any grade
31 (40) no. (%): Patients with Dry mouth, Any grade
1 (1) no. (%): Patients with Alopecia, Grade 2 | Patients with Arthralgia, Grade ≥3 | Patients with Conjunctivitis, Grade ≥3 | Patients with Dry eye, Grade ≥3 | Patients with Dyspnea, Grade 1 | Patients with Hematuria, Grade ≥3 | Patients with Nail dystrophy, Grade 2 | Patients with Nausea, Grade ≥3 | Patients with Pain in extremity, Grade ≥3 | Patients with Peripheral edema, Grade ≥3 | Patients with Vision blurred, Grade 2 | Patients with Vision blurred, Grade ≥3
10 (13) no. (%): Patients with Alopecia, Any grade | Patients with Constipation, Grade 1 | Patients with Constipation, Grade 2 | Patients with Dry skin, Grade 1 | Patients with Dysgeusia, Any grade | Patients with Lacrimation increased, Grade 1 | Patients with Paronychia, Grade 2
14 (18) no. (%): Patients with Abdominal pain, Any grade | Patients with Pyrexia, Any grade
3 (4) no. (%): Patients with Back pain, Grade 2 | Patients with Blood creatinine increased, Grade 1 | Patients with Blood creatinine increased, Grade 2 | Patients with Dry eye, Grade 1 | Patients with Dyspepsia, Grade 2 | Patients with Dyspnea, Grade 2 | Patients with Lacrimation increased, Grade 2 | Patients with Oropharyngeal pain, Grade 2 | Patients with Peripheral edema, Grade 2 | Patients with Pyrexia, Grade 2 | Patients with Pyrexia, Grade ≥3 | Patients with Retinal detachment, Grade 2 | Patients with Vision blurred, Grade 1
4 (5) no. (%): Patients with Asthenia, Grade 2 | Patients with Conjunctivitis, Grade 1 | Patients with Decreased appetite, Grade ≥3 | Patients with Dysgeusia, Grade 2 | Patients with Fatigue, Grade ≥3 | Patients with Hand-foot syndrome, Grade 1 | Patients with Insomnia, Grade 1 | Patients with Nausea, Grade 2 | Patients with Urinary tract infection, Grade ≥3 | Patients with Weight decreased, Grade 1
11 (14) no. (%): Patients with Back pain, Any grade | Patients with Nausea, Grade 1 | Patients with Vomiting, Any grade
5 (6) no. (%): Patients with Abdominal pain, Grade 2 | Patients with Anemia, Grade ≥3 | Patients with Arthralgia, Grade 1 | Patients with Asthenia, Grade 1 | Patients with Hematuria, Grade 1 | Patients with Hyponatremia, Grade ≥3 | Patients with Onycholysis, Grade ≥3 | Patients with Oropharyngeal pain, Grade 1 | Patients with Retinal detachment, Grade 1 | Patients with Vision blurred, Any grade
24 (31) no. (%): Patients with Diarrhea, Grade 1
15 (19) no. (%): Patients with Diarrhea, Grade 2
20 (26) no. (%): Patients with Constipation, Any grade | Patients with Fatigue, Any grade
2 (3) no. (%): Patients with Abdominal pain, Grade ≥3 | Patients with Alanine aminotransferase increased, Grade 2 | Patients with Arthralgia, Grade 2 | Patients with Aspartate aminotransferase increased, Grade 2 | Patients with Back pain, Grade ≥3 | Patients with Conjunctivitis, Grade 2 | Patients with Dry eye, Grade 2 | Patients with Dry mouth, Grade ≥3 | Patients with Dyspnea, Grade ≥3 | Patients with Hyponatremia, Grade 1 | Patients with Insomnia, Grade 2 | Patients with Insomnia, Grade ≥3 | Patients with Onycholysis, Grade 1 | Patients with Onychomadesis, Grade 1 | Patients with Pain in extremity, Grade 1 | Patients with Paronychia, Grade 1 | Patients with Peripheral edema, Grade 1 | Patients with Vomiting, Grade 2 | Patients with Weight decreased, Grade 2 | Patients with Weight decreased, Grade ≥3
0 no. (%): Patients with Alanine aminotransferase increased, Grade ≥3 | Patients with Alopecia, Grade ≥3 | Patients with Anemia, Grade 1 | Patients with Aspartate aminotransferase increased, Grade ≥3 | Patients with Blood creatinine increased, Grade ≥3 | Patients with Constipation, Grade ≥3 | Patients with Diarrhea, Grade ≥3 | Patients with Dry skin, Grade ≥3 | Patients with Dysgeusia, Grade ≥3 | Patients with Dyspepsia, Grade ≥3 | Patients with Hand-foot syndrome, Grade ≥3 | Patients with Hematuria, Grade 2 | Patients with Hyperphosphatemia, Grade ≥3 | Patients with Hypomagnesemia, Grade 2 | Patients with Hypomagnesemia, Grade ≥3 | Patients with Hyponatremia, Grade 2 | Patients with Lacrimation increased, Grade ≥3 | Patients with Nail dystrophy, Grade ≥3 | Patients with Onychomadesis, Grade ≥3 | Patients with Oropharyngeal pain, Grade ≥3 | Patients with Paronychia, Grade ≥3 | Patients with Retinal detachment, Grade ≥3 | Patients with Urinary tract infection, Grade 1 | Patients with Vomiting, Grade ≥3 | Treatment-related adverse event: Alopecia, Grade 2 | Treatment-related adverse event: Alopecia, Grade ≥3
6 (8) no. (%): Patients with Back pain, Grade 1 | Patients with Blood creatinine increased, Any grade | Patients with Dry eye, Any grade | Patients with Dry mouth, Grade 2 | Patients with Dysgeusia, Grade 1 | Patients with Dyspepsia, Grade 1 | Patients with Hematuria, Any grade | Patients with Hypomagnesemia, Any grade | Patients with Hypomagnesemia, Grade 1 | Patients with Nail dystrophy, Grade 1 | Patients with Onycholysis, Grade 2 | Patients with Onychomadesis, Grade 2 | Patients with Pain in extremity, Grade 2 | Patients with Peripheral edema, Any grade
13 (17) no. (%): Patients with Anemia, Any grade | Patients with Decreased appetite, Grade 2 | Patients with Hand-foot syndrome, Any grade | Patients with Lacrimation increased, Any grade | Patients with Onycholysis, Any grade | Patients with Stomatitis, Grade 1 | Patients with Stomatitis, Grade 2 | Patients with Urinary tract infection, Any grade
44 (56) no. (%): Patients with Hyperphosphatemia, Grade 1
7 (9) no. (%): Patients with Abdominal pain, Grade 1 | Patients with Alanine aminotransferase increased, Grade 1 | Patients with Aspartate aminotransferase increased, Grade 1 | Patients with Conjunctivitis, Any grade | Patients with Hyponatremia, Any grade | Patients with Nail dystrophy, Any grade | Patients with Stomatitis, Grade ≥3
33 (42) no. (%): Patients with Stomatitis, Any grade
12 (15) no. (%): Patients with Decreased appetite, Grade 1 | Patients with Paronychia, Any grade
29 (37) no. (%): Patients with Decreased appetite, Any grade
23 (30) no. (%): Patients with Dry mouth, Grade 1
18 (23) no. (%): Patients with Asthenia, Any grade | Patients with Dry skin, Any grade
8 (10) no. (%): Patients with Anemia, Grade 2 | Patients with Arthralgia, Any grade | Patients with Dry skin, Grade 2 | Patients with Fatigue, Grade 1 | Patients with Fatigue, Grade 2 | Patients with Hyperphosphatemia, Grade 2 | Patients with Insomnia, Any grade | Patients with Onychomadesis, Any grade | Patients with Oropharyngeal pain, Any grade | Patients with Pyrexia, Grade 1 | Patients with Retinal detachment, Any grade | Patients with Weight decreased, Any grade | Treatment-related adverse event: Alopecia, Any grade | Treatment-related adverse event: Alopecia, Grade 1
39 (50) no. (%): Patients with Diarrhea, Any grade
9 (12) no. (%): Patients with Alanine aminotransferase increased, Any grade | Patients with Alopecia, Grade 1 | Patients with Aspartate aminotransferase increased, Any grade | Patients with Asthenia, Grade ≥3 | Patients with Dyspepsia, Any grade | Patients with Hand-foot syndrome, Grade 2 | Patients with Pain in extremity, Any grade | Patients with Urinary tract infection, Grade 2 | Patients with Vomiting, Grade 1
